Assay results reported in patent publication US20020068271A1, “Methods for identifying agents capable of modulating protein kinase C theta (PKC0) activity” (priority 1999, published 2002).
“Also recorded” adds a separate entry of the source. Residues, ends and D or L forms follow the SMILES beside them. *: point of attachment. Cbz = O=C(OCc1ccccc1)*

Assays:
[1] = test system: PKCθ-A/E-induced CD28RE/AP-1; assay: CD28RE/AP-1-Luc reporter induced by constitutively active PKCθ-A/E in Jurkat cells; assay type: cell-based, human; conditions: cultured 16 hr, MG132 0, 5, 10, 20 μM (FIG. 5b)
Experimental: (§1) Jurkat cells were transfected with an empty vector (−) or constitutively active PKCθ (10 μg) together with NF-κB-Luc (FIG. 5a) CD28RE/AP-1-Luc (FIG. 5b), or AP-1-Luc (FIG. 5c) reporter constructs (5 μg each). The cells were cultured for 16 hr with the indicated concentrations of the […] MG132 (0, 5, 10, 20 μM), lysed, and luciferase activity was quantified. FIG. 5d: Jurkat cells were transfected with wild type IKKα (5 μg) or IKKβ (2 μg) together with an empty vector (0) or increasing amounts of constitutively active PKCθ. Twenty-four hr later, the cells were stimulated with anti-CD3/CD28 antibodies or with TNFα. Immunoprecipitated IKKα or IKKβ were subjected to an in vitro kinase assay. Phosphorylated GST-IκBα/1-62 was detected by autoradiography (top panels). […] After 24 hr, cells were lysed and normalized luciferase activity was determined. FIG. 5f: The expression level of the transfected IKKs or PKCθ was assessed by Western blotting using c-Myc-(IKKα), Flag-(IKKβ), or PKCθ-specific antibodies.
(§2) Cell Culture, Transfection, and Reporter Assays. […] Transfected Jurkat cells were harvested after 24 hr, washed twice with PBS, lysed, and luciferase or β-galactosidase activities were determined. The results were expressed as arbitrary luciferase units normalized to β-galactosidase activity in the same cells. […]

[2] = test system: PKCθ-A/E-induced NF-κB; assay: NF-κB-Luc reporter induced by constitutively active PKCθ-A/E in Jurkat cells; assay type: cell-based, human; conditions: cultured 16 hr, MG132 0, 5, 10, 20 μM (FIG. 5a)
Experimental: as §1, §2

[3] = test system: BAD (Ser-136, Ser-112); assay: Phosphorylation of BAD induced by Fas or combined CD3/CD28 ligation; assay type: cell-based
From the text: Thus, the invention provides methods for identifying inhibitors of PKCθ activity by determining the ability of a test agent to inhibit BAD phosphorylation by PKCθ or a BAD activity.

[4] = test system: TNFα-induced NF-κB; assay: NF-κB activity induced by TNFα in Jurkat cells; assay type: cell-based, human; conditions: TNFα 10 ng/ml (FIG. 4b)
Experimental: (§3) FIG. 4a: Jurkat T cells were cotransfected with CD28RE/AP-1-Luc (10 μg) and β-galactosidase plasmid (2 μg) reporters. Twenty hr later, cells were stimulated for 10 min with CD3- plus CD28-specific antibodies, in the presence or absence of rottlerin (Rott; 30 μM) or Gö6976 (Gö; 0.5 μM). Luciferase activity in cell lysates was determined. FIG. 4b Jurkat cells were incubated (15 min at 37° C.) in the absence or presence of rottlerin or Gö6976, and then stimulated with anti-CD3/CD28 antibodies or with TNFα (10 ng/ml) for the indicated times. Nuclear and cytoplasmic extracts were prepared, and protein from each fraction (5 μg) was analyzed by Western blotting with an anti-RelA antibody. FIG. 4c: Wild-type PKCθ-transfected Jurkat T cells were stimulated as in (a). Cell lysates were immunoprecipitated (IP) with normal rabbit serum (NRS) or with an anti-PKCθ antibody, and the in vitro enzymatic activity of PKCθ was measured in the presence or absence of rottlerin or Gö6976 (top panel). The membrane was immunoblotted with a PKCθ-specific antibody (bottom panel).
(§4) Subcellular Fractionation. To determine PKCθ redistribution, cells were fractionated into cytosolic or membrane fractions as described by Meller (1996) Mol. Cell. Biol. 16:5782-5791; and, SDS-PAGE-resolved proteins were immunoblotted with an HRP-conjugated anti-PKCθ monoclonal antibody (Transduction Laboratories). […]

[5] = molecular target: T1, PKCθ (Homo sapiens, UniProt Q04759); conditions: in vitro and in intact T cells; cited from earlier work
[6] = test system: CD28RE/AP-1 element of the IL-2 promoter; assay: CD28RE/AP-1-Luc reporter assay, anti-CD3/CD28-stimulated Jurkat T cells; assay type: cell-based; conditions: Homo sapiens, read-out: inhibition of anti-CD3/CD28-stimulated activity of CD28RE/AP-1
Experimental: as §3
Cell Culture, Transfection, and Reporter Assays. […] Transfected Jurkat cells were harvested after 24 hr, washed twice with PBS, lysed, and luciferase or β-galactosidase activities were determined. The results were expressed as arbitrary luciferase units normalized to β-galactosidase activity in the same cells.

[7] = molecular target: T1, PKCθ; assay: In vitro kinase assay of immunoprecipitated PKCθ (MBP substrate); assay type: biochemical; parameters: expressed in transfected cells; host or cells: Jurkat (E6.1) human leukemic T cells; conditions: immunoprecipitated PKCθ from wild-type PKCθ-transfected Jurkat T cells, inhibitor added to kinase reaction (FIG. 4c)
Experimental: as §3
Kinase Assays. […] ATP incorporation was determined using a STORM 860™ PhosphorImager (Molecular Dynamics). […]

[8] = test system: NF-κB RelA (p65) nuclear translocation; assay: Nuclear translocation of RelA (p65) after anti-CD3/CD28 stimulation, Western blot of nuclear/cytoplasmic extracts; assay type: cell-based, human; conditions: Jurkat cells preincubated 15 min at 37° C., anti-CD3/CD28 stimulation (FIG. 4b)
Experimental: as §3, §4

[9] = test system: T cells; assay: Fas-mediated T cell apoptosis; assay type: cell-based
From the text: PKCθ mediates a selective T cell survival signal via phosphorylation of BAD, a Bcl-2 family member. PKC-activating phorbol esters protect various cell types, including T cells, from apoptosis induced by the interaction of Fas with its ligand. However, before the instant invention, the mechanism of this protective effect as well as the identity of the PKC isoform(s) involved in this process were poorly understood. Studies analyzed the role of PKCθ selectively expressed in T lymphocytes in protecting T cells from Fas-mediated apoptosis. […] These events preceded the onset of cell apoptosis. […] Thus, the invention provides methods for identifying inhibitors of PKCθ activity by determining the ability of a test agent to inhibit PKCθ selective protection of T cells from Fas-mediated apoptosis.

T1 sequence (Q04759 whole entry): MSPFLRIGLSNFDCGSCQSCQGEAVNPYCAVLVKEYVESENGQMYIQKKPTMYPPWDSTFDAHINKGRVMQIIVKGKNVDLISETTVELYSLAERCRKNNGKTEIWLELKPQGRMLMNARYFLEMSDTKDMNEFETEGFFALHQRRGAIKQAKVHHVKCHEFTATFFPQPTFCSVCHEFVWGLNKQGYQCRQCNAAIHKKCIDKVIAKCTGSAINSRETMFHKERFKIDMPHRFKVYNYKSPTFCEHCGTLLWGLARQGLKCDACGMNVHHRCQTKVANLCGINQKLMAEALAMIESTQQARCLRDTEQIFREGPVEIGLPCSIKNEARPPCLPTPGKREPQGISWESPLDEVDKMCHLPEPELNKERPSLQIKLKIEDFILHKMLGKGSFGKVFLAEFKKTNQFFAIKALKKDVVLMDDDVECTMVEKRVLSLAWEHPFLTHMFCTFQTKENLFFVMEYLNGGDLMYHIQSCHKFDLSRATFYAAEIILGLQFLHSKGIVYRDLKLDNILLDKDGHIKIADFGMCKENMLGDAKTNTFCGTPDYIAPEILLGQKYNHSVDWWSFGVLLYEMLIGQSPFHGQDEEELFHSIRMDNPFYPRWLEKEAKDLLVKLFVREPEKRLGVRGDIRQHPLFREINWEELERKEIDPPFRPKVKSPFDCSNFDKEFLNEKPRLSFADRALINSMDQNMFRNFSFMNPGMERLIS

For `CC(C)C[C@@H](C=O)NC(=O)[C@H](CC(C)C)NC(=O)[C@H](CC(C)C)NC(=O)OCc1ccccc1` [MG132] (Cbz-Leu-Leu-Leu-aldehyde), the “PKCθ-A/E-induced activation of CD28RE/AP-1” value [1] was “blocked in a dose-dependent manner; also recorded: inhibited” and the “PKCθ-A/E-induced activation of NF-κB” value [2] was “blocked in a dose-dependent manner”.
For `CC(=O)c1c(O)c(C)c(O)c(Cc2c(O)c3c(c(C(=O)/C=C/c4ccccc4)c2O)OC(C)(C)C=C3)c1O` [rottlerin], the “phosphorylation of BAD on Ser-136 (and to a lesser extent on Ser-112)” value [3] is listed as “selectively blocked”, the “inhibition of NF-κB activity induced by TNFα” value [4] is listed as “did not inhibit” and the “inhibition of PKCθ function” value [5] is listed as “inhibits PKCθ function”. For the same compound, the inhibition at 30 µM [6] was roughly 80%, the “inhibition of CD3/CD28-induced PKCθ activity” value [7] was “considerably more effective than Gö6976” and the “receptor-stimulated nuclear translocation of RelA (p65)” value [8] was “essentially blocked”. For the same compound, the “synergy with an anti-Fas antibody to induce rapid T cell apoptosis” value [9] was “synergized”.
